The target in the experiment is T1, BA/F3-FLT3-ITD + D835Y (Homo sapiens, UniProt P36888, D835Y, cells depend on it, form not given).
T1 sequence (P36888 with tags, fused parts or gaps INS600HVDFREYEYD/D835Y): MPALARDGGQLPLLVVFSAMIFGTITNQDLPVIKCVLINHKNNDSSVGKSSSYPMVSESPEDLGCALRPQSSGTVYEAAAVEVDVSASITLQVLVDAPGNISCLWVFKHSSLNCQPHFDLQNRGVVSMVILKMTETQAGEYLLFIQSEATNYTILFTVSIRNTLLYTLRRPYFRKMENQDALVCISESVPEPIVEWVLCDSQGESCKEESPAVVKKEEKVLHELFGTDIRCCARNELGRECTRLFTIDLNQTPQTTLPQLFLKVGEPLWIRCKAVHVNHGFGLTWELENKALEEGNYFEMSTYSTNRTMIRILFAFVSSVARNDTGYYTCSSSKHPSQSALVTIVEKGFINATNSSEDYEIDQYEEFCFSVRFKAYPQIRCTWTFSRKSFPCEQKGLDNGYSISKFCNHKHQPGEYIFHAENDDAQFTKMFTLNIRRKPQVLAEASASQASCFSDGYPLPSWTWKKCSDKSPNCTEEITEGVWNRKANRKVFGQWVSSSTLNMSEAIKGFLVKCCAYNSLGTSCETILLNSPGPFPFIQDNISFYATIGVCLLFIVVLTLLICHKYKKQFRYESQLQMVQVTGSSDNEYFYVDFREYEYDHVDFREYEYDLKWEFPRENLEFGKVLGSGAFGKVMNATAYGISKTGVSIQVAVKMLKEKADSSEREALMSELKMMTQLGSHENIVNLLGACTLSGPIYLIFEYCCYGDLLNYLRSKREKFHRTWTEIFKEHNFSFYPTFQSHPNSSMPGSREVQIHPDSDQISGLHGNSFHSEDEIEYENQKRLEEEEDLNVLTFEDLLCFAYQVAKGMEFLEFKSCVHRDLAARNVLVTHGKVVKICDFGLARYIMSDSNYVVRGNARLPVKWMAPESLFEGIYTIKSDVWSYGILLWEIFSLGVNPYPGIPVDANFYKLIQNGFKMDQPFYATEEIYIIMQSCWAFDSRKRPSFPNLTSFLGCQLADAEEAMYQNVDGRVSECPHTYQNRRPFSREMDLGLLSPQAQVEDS
Kind of experiment: Engineered BA/F3 cell growth assay, FLT3 ITD/D835Y. The class given is cell-based, murine. The settings on record: 3 d growth. In short, it runs like this: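 IC50 derived from CellTiter-Glo ATP luminescence after 3 days at 37 °C, 5% CO2, over eight 1:3 dilutions from 1 μM (0.2% DMSO final). Cells: IL-3-independent murine Ba/F3 expressing full-length FLT3 ITD/D835Y, 1×10^4 per well.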

By GI50 is commonly meant the concentration that inhibits growth by half.

With `Cn1cnc(Nc2ncc(-c3ccc(CC(=O)Nc4cncc(C(F)(F)F)c4)c(F)c3)cn2)c1` [Compound P-0052, 2-[2-fluoro-4-[2-[(1-methylimidazol-4-yl)amino]pyrimidin-5-yl]phenyl]-N-[5-(trifluoromethyl)-3-pyridyl]acetamide], the GI50 was in the range of 0.0001 to 10 µM. Regarding `COc1ncc(NC(=O)Cc2ccc(-c3cnc(Nc4cn[nH]c4)nc3)cc2F)cc1C(F)(F)F` [Compound P-0026, 2-[2-fluoro-4-[2-(1H-pyrazol-4-ylamino)pyrimidin-5-yl]phenyl]-N-[6-methoxy-5-(trifluoromethyl)-3-pyridyl]acetamide], the GI50 lay in the range of 0.0001 to 10 µM.

Turning to `O=C(Cc1ccc(-c2cnc3[nH]cc(Cl)c3n2)cc1F)Nc1cncc(C(F)(F)F)c1` [Compound P-0061, 2-[4-(7-chloro-5H-pyrrolo[2,3-b]pyrazin-2-yl)-2-fluoro-phenyl]-N-[5-(trifluoromethyl)-3-pyridyl]acetamide], the GI50 was 0.0001 to 10 µM. Turning to `COc1ncc(NC(=O)Cc2ccc(-c3cnc(Nc4cnn5ccccc45)nc3)cc2F)cc1C(F)(F)F` [Compound P-0037, 2-[2-fluoro-4-[2-(pyrazolo[1,5-a]pyridin-3-ylamino)pyrimidin-5-yl]phenyl]-N-[6-methoxy-5-(trifluoromethyl)-3-pyridyl]acetamide], the GI50 lay within 0.0001 to 10 µM. With `O=C(Cc1ccc(-c2cnc3[nH]cc(F)c3c2)cc1F)Nc1ccnc(C(F)(F)F)c1` [Compound P-0029, 2-[2-fluoro-4-(3-fluoro-1H-pyrrolo[2,3-b]pyridin-5-yl)phenyl]-N-[2-(trifluoromethyl)-4-pyridyl]acetamide] the figure was 0.0001 to 10 µM; with `Cn1cc(Nc2ncc(-c3ccc(CC(=O)Nc4cc(C(F)(F)F)ccn4)c(F)c3)cn2)cn1` [Compound P-0082, 2-[2-fluoro-4-[2-[(1-methylpyrazol-4-yl)amino]pyrimidin-5-yl]phenyl]-N-[4-(trifluoromethyl)-2-pyridyl]acetamide], 0.0001 to 10 µM; with `Cn1cc(Nc2ncc(-c3ccc(CC(=O)Nc4cncc(C5CC5)c4)c(F)c3)cn2)cn1` [Compound P-0081, N-(5-cyclopropyl-3-pyridyl)-2-[2-fluoro-4-[2-[(1-methylpyrazol-4-yl)amino]pyrimidin-5-yl]phenyl]acetamide], 0.0001 to 10 µM. With `Cn1cc(Nc2ncc(-c3ccc(CC(=O)Nc4cncc(C(F)(F)F)c4)c(F)c3)cn2)cn1` [Compound P-0084, 2-[2-fluoro-4-[2-[(1-methylpyrazol-4-yl)amino]pyrimidin-5-yl]phenyl]-N-[5-(trifluoromethyl)-3-pyridyl]acetamide] the figure was 0.0001 to 10 µM. The same measure for `O=C(Cc1ccc(-c2cnc(Nc3cnn4ccccc34)nc2)cc1F)Nc1ccnc(C(F)(F)F)c1` [Compound P-0033, 2-[2-fluoro-4-[2-(pyrazolo[1,5-a]pyridin-3-ylamino)pyrimidin-5-yl]phenyl]-N-[2-(trifluoromethyl)-4-pyridyl]acetamide]: 0.0001 to 10 µM.

Values taken from patent publication US10160747B2, “Compounds and methods for kinase modulation, and indications therefor” (Plexxikon Inc., priority 2016, dated 2018).
